# Experiments:
# Q2/W265L-Q3 channels = Q2/W265L-Q3 channels (Homo sapiens, UniProt O43525+O43526, W265L); assay: Two-electrode voltage-clamp of Q2/W265L-Q3 mutant channels in Xenopus oocytes; format: cell-based; conditions: for Non-normalized tail current V0.5 / Normalized tail current V0.5 / Slope: Q2/W265L-Q3
# From the text: (§1) cRNA transcripts encoding human KCNA1, KCNQ1, KCNQ2, KCNQ3, KCNQ4, or KCNQ5 were generated by in vitro transcription using the T7 polymerase message machine kit (Thermo Fisher Scientific), after vector linearization, from cDNA sub-cloned into plasmids incorporating X. laevis β-globin 5′ and 3′ UTRs flanking the coding region to enhance translation and cRNA stability. cRNA was quantified by spectrophotometry. Mutant cDNAs were generated by site-directed mutagenesis using a QuikChange kit according to manufacturer’s protocol (Stratagene, San Diego, CA) and corresponding cRNAs prepared as above. Defolliculated stage V and VI X. laevis oocytes (Ecocyte Bioscience, Austin, TX) were injected with Kv channel α subunit cRNAs (10 ng total per oocyte). Oocytes were incubated at 16 °C in Barth’s saline solution (Ecocyte) containing penicillin and streptomycin, with daily washing, for 3–5 days prior to two-electrode voltage-clamp (TEVC) recording.
# (§2) Oocytes were placed in a small-volume oocyte bath (Warner) and viewed with a dissection microscope. Chemicals were sourced from Sigma. Bath solution was (in mM): 96 NaCl, 4 KCl, 1 MgCl2, 1 CaCl2, 10 HEPES (pH 7.6). […] MTX (DMSO), sorbic acid (ethanol), and glutaconic acid (molecular grade H2O) were stored at −20 °C as 1 M stocks. Oleamide was stored as a 1 mM stock in ethanol at 4 °C. Palmitic acid was conjugated with bovine serum albumin as a 1 mM stock and stored at −20 °C. All compounds were diluted to working concentrations each experimental day. All compounds were introduced to the recording bath via gravity perfusion at a constant flow of 1 ml/min for 3 min prior to recording. Pipettes were of 1–2 MΩ resistance when filled with 3 M KCl. Currents were recorded in response to pulses between −80 and +40 mV at 20 mV intervals, or a single pulse to +40 mV, from a holding potential of −80 mV, to yield current–voltage relationships, current magnitude, and for quantifying activation rate. TEVC data analysis was performed with Clampfit10.2 (Molecular Devices) and Graphpad Prism software (GraphPad, San Diego, CA, USA); values are stated as mean ± SEM. Normalized tail currents were plotted versus prepulse voltage and fitted with a single Boltzmann function:1 g=A1-A2/1+expV12-Vy+A2, where g is the normalized tail conductance, A1 is the initial value at −∞, A2 is the final value at +∞, V1/2 is the half-maximal voltage of activation, and Vs the slope factor. Activation and deactivation kinetics were fitted with single-exponential functions.
# [1] = target: KCNQ2-W236L/KCNQ3-W265L channels (Homo sapiens, UniProt O43525+O43526, W236L/W265L); assay: Two-electrode voltage-clamp of W236L-Q2/W265L-Q3 mutant channels in Xenopus oocytes; format: cell-based; conditions: for Non-normalized tail current V0.5 / Normalized tail current V0.5 / Slope: W236L-Q2/W265L-Q3
# From the text: as §1, §2
# KCNA1 = KCNA1 (Homo sapiens, UniProt Q09470); assay: Two-electrode voltage-clamp of KCNA1 in Xenopus oocytes; format: cell-based; conditions: MTX concentration not given; IVA 500 µM
# Sequence of KCNA1 (Q09470 whole entry): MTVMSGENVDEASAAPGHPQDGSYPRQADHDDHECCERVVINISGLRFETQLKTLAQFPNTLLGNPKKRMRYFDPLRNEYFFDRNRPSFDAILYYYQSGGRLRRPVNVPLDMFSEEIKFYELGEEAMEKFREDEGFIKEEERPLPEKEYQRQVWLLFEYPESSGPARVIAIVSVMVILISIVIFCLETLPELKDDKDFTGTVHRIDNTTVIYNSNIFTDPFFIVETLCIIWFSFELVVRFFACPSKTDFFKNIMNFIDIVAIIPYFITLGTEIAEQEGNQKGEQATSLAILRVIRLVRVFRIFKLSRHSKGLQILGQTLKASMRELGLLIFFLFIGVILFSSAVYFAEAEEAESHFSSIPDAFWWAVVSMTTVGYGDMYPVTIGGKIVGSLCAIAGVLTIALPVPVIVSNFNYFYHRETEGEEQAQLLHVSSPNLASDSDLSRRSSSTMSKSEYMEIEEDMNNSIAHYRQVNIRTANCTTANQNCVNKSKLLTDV
# From the text: as §1
# as §2, with “TEVC data analysis was performed with Clampfit10.2 (Molecular Devices) and Graphpad Prism software (GraphPad, San Diego, CA, USA); values are stated as mean ± SEM. Normalized tail currents were plotted versus prepulse voltage and fitted with a single Boltzmann function:1 g=A1-A2/1+expV12-Vy+A2, where g is the normalized tail conductance, A1 is the initial value at −∞, A2 is the final value at +∞, V1/2 is the half-maximal voltage of activation, and Vs the slope factor. Activation and deactivation kinetics were fitted with single-exponential functions.” left out
# [2] = tested on: pentylene tetrazole-induced seizures; assay: PTZ chemoconvulsant assay; format: in vivo, mouse; conditions: mice
# From the text: We compared anticonvulsant activities of test compounds in male C57BL/6 mice (Charles River) aged 2–3 months. Mice were housed and used according to the recommendations in the Guide for the Care and Use of Laboratory Animals of the National Institutes of Health (NIH Publication, 8th edition, 2011). The study protocol was approved by the Institutional Animal Care and Use Committee of University of California, Irvine, which confirmed that all relevant ethical regulations were adhered to. Chemicals were sourced from Sigma (St. Louis, MO, USA) . A pentylene tetrazole (PTZ) chemoconvulsant assay was used[54]. […] Following the PTZ injection, mice were caged individually and an observer (GWA) blinded to the drug used recorded, over 20 min, clonic and tonic seizure incidence, and seizure-related mortality.
# All values are expressed as mean ± SEM. Chi-squared analysis was used to compare seizure-related mortality in mice. One-way ANOVA was applied for all other tests; if multiple comparisons were performed, a post-hoc Tukey’s HSD test was performed following ANOVA. All p-values were two-sided. Statistical significance was defined as p < 0.05.
# KCNQ2/3 channels = KCNQ2/3 channels (Homo sapiens, UniProt O43525+O43526); assay: Relative ion permeability of KCNQ2/3 channels (pseudo-bi-ionic substitution, GRb/GK); format: cell-based; conditions: MTX 30 µM
# Protocol: For relative permeability studies, currents were recorded in response to a single pulse to +40 mV for 5 s, followed by pulses between −80 mV and +40 mV at 20 mV intervals, from a holding potential of −80 mV, to yield a current–voltage relationship. According to the Goldman–Hodgkin–Katz (GHK) voltage equation:2 Erev=RT∕FlnPKK^+O+PNaNaO+PClCli/PKK^+i+PNaNai+PClClo, where Erev is the absolute reversal potential and P is the permeability. This permits calculation of the relative permeability of each ion if concentrations on either side of the membrane are known. A modified version of this equation was used here to determine relative permeability of two ions in a system in which only the extracellular ion concentration was known. Thus, relative permeability of Rb^+, Cs^+, and Na^+ compared to K^+ ions was calculated for all channels by plotting the I/V relationships for each channel with each extracellular ion (100 mM) and comparing them to that with 100 mM extracellular K^+ ion to yield a change in reversal potential (ΔErev) for each ion compared to that of K^+. Permeability ratios for each ion compared to K^+ were then calculated as3 ΔErev=Erev,X-Erev,K=RT/zFlnPX/PK
# For calculating Rb^+/K^+ permeability (Fig. 3g), tail currents were elicited by a single pulse to +40 mV, followed by a pulse at −80 mV, from a holding potential of −80 mV in 98 mM [K^+] and then 98 mM [Rb^+]. […]
# KCNQ1 = KCNQ1 (Homo sapiens, UniProt P51787); design: method as in PMID 27997884; conditions: cited from earlier work
# Sequence of KCNQ1 (P51787 whole entry): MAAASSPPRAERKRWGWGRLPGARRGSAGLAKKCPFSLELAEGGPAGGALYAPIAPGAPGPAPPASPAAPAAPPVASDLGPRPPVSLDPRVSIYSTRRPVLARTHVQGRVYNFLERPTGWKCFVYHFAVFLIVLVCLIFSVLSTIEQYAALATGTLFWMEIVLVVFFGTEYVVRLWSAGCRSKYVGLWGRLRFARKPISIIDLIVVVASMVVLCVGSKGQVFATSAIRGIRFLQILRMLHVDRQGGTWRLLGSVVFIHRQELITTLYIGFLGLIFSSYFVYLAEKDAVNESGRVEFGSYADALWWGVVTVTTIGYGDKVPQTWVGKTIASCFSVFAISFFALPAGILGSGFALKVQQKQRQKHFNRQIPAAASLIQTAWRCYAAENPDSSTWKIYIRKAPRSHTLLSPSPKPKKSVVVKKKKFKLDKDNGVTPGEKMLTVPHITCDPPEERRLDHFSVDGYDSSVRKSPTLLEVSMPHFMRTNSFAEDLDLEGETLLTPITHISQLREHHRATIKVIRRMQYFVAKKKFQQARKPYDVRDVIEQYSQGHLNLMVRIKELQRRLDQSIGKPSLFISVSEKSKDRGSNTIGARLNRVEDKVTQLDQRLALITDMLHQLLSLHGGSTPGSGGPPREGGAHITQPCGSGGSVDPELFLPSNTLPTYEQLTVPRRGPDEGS
# Sequence of Q2/W265L-Q3 channels (O43526 whole entry): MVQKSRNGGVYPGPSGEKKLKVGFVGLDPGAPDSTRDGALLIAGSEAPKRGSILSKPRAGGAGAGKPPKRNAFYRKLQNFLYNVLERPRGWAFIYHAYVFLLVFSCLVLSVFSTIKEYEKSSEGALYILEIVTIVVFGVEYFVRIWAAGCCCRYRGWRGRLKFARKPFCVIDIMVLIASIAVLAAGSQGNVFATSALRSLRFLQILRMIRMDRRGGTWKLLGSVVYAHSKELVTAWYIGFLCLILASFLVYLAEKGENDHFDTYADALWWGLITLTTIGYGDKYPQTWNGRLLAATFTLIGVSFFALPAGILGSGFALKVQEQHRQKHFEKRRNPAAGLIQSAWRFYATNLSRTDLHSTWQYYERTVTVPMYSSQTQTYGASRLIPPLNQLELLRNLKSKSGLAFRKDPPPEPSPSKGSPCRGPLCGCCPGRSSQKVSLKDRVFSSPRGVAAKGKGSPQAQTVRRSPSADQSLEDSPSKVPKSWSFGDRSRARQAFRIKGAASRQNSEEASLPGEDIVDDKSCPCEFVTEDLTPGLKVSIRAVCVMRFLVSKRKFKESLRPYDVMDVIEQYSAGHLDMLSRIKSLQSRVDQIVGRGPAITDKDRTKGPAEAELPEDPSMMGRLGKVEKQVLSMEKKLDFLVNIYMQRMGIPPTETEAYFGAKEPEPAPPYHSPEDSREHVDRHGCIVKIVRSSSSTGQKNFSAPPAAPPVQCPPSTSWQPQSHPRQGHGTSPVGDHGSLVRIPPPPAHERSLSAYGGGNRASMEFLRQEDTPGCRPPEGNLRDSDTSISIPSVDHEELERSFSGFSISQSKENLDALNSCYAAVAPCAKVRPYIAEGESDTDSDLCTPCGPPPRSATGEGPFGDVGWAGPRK
# Sequence of Q2/W265L-Q3 channels (O43525 whole entry W265L): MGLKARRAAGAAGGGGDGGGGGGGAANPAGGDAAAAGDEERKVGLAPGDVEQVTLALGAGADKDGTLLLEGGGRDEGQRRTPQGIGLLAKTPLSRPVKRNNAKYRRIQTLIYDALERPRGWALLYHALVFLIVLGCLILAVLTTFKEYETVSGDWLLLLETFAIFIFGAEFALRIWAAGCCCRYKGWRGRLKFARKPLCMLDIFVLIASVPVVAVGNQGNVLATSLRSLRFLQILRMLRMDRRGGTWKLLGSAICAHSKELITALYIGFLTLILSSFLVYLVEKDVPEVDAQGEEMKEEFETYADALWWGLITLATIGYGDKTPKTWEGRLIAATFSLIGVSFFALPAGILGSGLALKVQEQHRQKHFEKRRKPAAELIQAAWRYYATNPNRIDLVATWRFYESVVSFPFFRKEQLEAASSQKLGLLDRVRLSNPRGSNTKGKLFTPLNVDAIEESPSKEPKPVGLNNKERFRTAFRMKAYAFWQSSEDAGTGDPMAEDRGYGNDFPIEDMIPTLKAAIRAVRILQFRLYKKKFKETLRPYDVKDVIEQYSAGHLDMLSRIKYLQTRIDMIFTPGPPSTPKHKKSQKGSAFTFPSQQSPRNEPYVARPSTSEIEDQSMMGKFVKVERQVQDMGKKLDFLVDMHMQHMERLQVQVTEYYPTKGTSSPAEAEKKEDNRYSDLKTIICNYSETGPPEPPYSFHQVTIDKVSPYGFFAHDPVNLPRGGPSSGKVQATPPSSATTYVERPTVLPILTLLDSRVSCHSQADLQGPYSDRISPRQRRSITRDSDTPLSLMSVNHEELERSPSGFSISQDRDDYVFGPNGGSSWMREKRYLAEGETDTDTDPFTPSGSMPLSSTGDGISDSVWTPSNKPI
smiles,measurement,setting,value
"CC(=O)c1c(O)c(C)c(O)c(Cc2c(O)c3c(c(C(=O)/C=C/c4ccccc4)c2O)OC(C)(C)C=C3)c1O [MTX, mallotoxin]",EC50,"Q2/W265L-Q3 channels; EC50, Q2/W265L-Q3, calculated from dose responses",70 ± 0.6 µM
same,Non-normalized tail current V0.5,Q2/W265L-Q3 channels; 1 µM,-51.3 ± 11.3 mV
same,Normalized tail current V0.5,Q2/W265L-Q3 channels; 1 µM,-45.7 ± 2.9 mV
same,Slope,Q2/W265L-Q3 channels; 1 µM,7.9 ± 1.7 mV
same,Non-normalized tail current V0.5,Q2/W265L-Q3 channels; 3 µM,-52.7 ± 10.5 mV
same,Normalized tail current V0.5,Q2/W265L-Q3 channels; 3 µM,-49.2 ± 2.6 mV
same,Slope,Q2/W265L-Q3 channels; 3 µM,7.9 ± 1.8 mV
same,Non-normalized tail current V0.5,Q2/W265L-Q3 channels; 10 µM,-54.0 ± 9.7 mV
same,Normalized tail current V0.5,Q2/W265L-Q3 channels; 10 µM,-51.8 ± 2.4 mV
same,Slope,Q2/W265L-Q3 channels; 10 µM,7.6 ± 1.4 mV
same,Non-normalized tail current V0.5,Q2/W265L-Q3 channels; 30 µM,-58.0 ± 8.3 mV
same,Normalized tail current V0.5,Q2/W265L-Q3 channels; 30 µM,-56.3 ± 2.2 mV
same,Slope,Q2/W265L-Q3 channels; 30 µM,7.4 ± 1.6 mV
same,Non-normalized tail current V0.5,Q2/W265L-Q3 channels; 100 µM,-63.7 ± 11.2 mV
same,Normalized tail current V0.5,Q2/W265L-Q3 channels; 100 µM,-61.8 ± 2.2 mV
same,Slope,Q2/W265L-Q3 channels; 100 µM,6.6 ± 2.1 mV
same,EC50,"Q2/W265L-Q3 channels; V0.5 EC50, Q2/W265L-Q3, calculated from shift in V0.5",13.7 ± 0.3 µM
same,EC50,[1],14.9 ± 0.1 µM
same,Non-normalized tail current V0.5,[1]; 1 µM,-62.5 ± 3.4 mV
same,Normalized tail current V0.5,[1]; 1 µM,-62.8 ± 0.4 mV
same,Slope,[1]; 1 µM,5.9 ± 0.5 mV
same,Non-normalized tail current V0.5,[1]; 3 µM,-63.6 ± 3.7 mV
same,Normalized tail current V0.5,[1]; 3 µM,-64.1 ± 0.9 mV
same,Slope,[1]; 3 µM,6.3 ± 0.9 mV
same,Non-normalized tail current V0.5,[1]; 10 µM,-66.3 ± 3.9 mV
same,Normalized tail current V0.5,[1]; 10 µM,-67.3 ± 0.9 mV
same,Slope,[1]; 10 µM,6.4 ± 0.6 mV
same,Non-normalized tail current V0.5,[1]; 30 µM,-70.6 ± 3.7 mV
same,Normalized tail current V0.5,[1]; 30 µM,-71.9 ± 0.9 mV
same,Slope,[1]; 30 µM,6.3 ± 0.5 mV
same,Non-normalized tail current V0.5,[1]; 100 µM,-74.4 ± 3.9 mV
same,Normalized tail current V0.5,[1]; 100 µM,-77.3 ± 1.4 mV
same,Slope,[1]; 100 µM,5.9 ± 1.8 mV
same,effect on KCNA1 currents,KCNA1,no effect
same,clonic seizure incidence,[2]; 10 mg/kg i.p. alone,neither compound reduced clonic seizures alone
same,clonic seizure incidence,"[2]; 20 mg/kg i.p., 30 min before 80 mg kg−1 PTZ",halved
same,suppression of PTZ-induced tonic seizures,[2]; individually,ineffective
same,GRb/GK (ratio of Rb+ conductance to K+ conductance),"KCNQ2/3 channels; KCNQ2/3, baseline 0.75 ± 0.10",0.52 ± 0.06
same,relative ion permeability of KCNQ2/3 compared to K+,KCNQ2/3 channels; 100 mM extracellular ion,"increased relative permeability of KCNQ2/3 to Na^+ and Cs^+, and decreased permeability to Rb^+"
same,effect on KCNQ1,KCNQ1,activated
